Assay results reported in patent US20100249107A1, “Biomarkers for Alzheimer's Disease Progression” (priority 2006, published 2010).

System: patients suffering from MCI
Experiment: InDDEx (ENA713B IA07) clinical trial: conversion from MCI to AD
Type: in vivo, human
Source text: Introduction and summary. The purpose of this EXAMPLE is to describe genetic association studies identifying twenty-five (25) AD-associated mutations of the invention. Genome-wide analyses for genetic association studies have only become possible within the past two years. The Investigation Into Delay to Diagnosis of Alzheimer's Disease With Exelon (InDDex; ENA713B IA07) clinical trial followed patients suffering from MCI and given either Exelon (rivastigmine) at various doses or placebo and followed their conversion to AD.

Compound: CCN(C)C(=O)Oc1cccc([C@H](C)N(C)C)c1 [Exelon, rivastigmine]
- Converted to AD, % (All patients (enrolled in and completed the clinical study), Exelon arm n = 508): 17.32%
- Converted to AD, % (Genome scan population (consented for pharmacogenetic study and passed the 100K scan), Exelon arm n = 211): 17.06%
